Results published in patent publication US20230416238A1, “N-[(1,3-BENZOXAZOL-2-YL)-HETEROCYCLE]AMIDE DERIVATIVES FOR THE TREATMENT AND PROPHYLAXIS OF HEPATITIS B VIRUS INFECTION” (Hoffmann-La Roche Inc., priority 2020, published 2023).

Columns and labels:
Format in all cases: cell-based
HBsAg = test: PHH HBV natural infection assay, HBsAg (alphalisa); conditions: Hepatitis B virus, Hepatocyte, read-out: HBsAg IC50
Method: (§1) Detailed procedures regarding primary human hepatocyte (PHH) HBV natural infection assay are described as below. One tube of frozen PHH (10 million cells) is thawed in 37° C. water bath and then transferred to 20 mL of PHH thawing medium (Sigma, InVitroGRO HT Medium, Cat. S03319) with gently mixing. The cells were then centrifuged at […] for 5 min, the supernatant was discarded and the tube was refilled with 25 mL of PHH plating medium (Sigma, InVitroGRO CP Medium, Cat. S03317). The tube was shaken very gently to re-suspend all cells, and then 50 μL of cells were transferred to each well 384-well collagen I coated plate with appropriate liquid handling equipment, e.g. Integra VIAFLO384 or Agilent Bravo. The cells were then cultured for 24 hours in a cell incubator. For HBV infection, after PHH attachment on the culture plate, the plating medium was removed and replenished with PHH culture medium containing HBV virus. The PHH culture medium was prepared with Dulbecco's Modified Eagle Medium (DMEM)/F12 (1:1 in volume ratio) containing 10% fetal bovine serum (Gibco, Cat. 10099141), 5 ng/mL human epidermal growth factor (Gibco, Cat. PHG0311L), 20 ng/mL dexamethasone (Sigma, Cat. D4902-100 mg), 250 ng/mL human recombinant insulin (Gibco, Cat. 41400045) and 100 U/mL penicillin. HBV virus at 200 genome equivalent (GE) per cell with 4% PEG8000 (Sigma, Cat. P1458) containing culture medium were added to the PHH culture medium for infection. The cells were then cultured for 24 hours in cell incubator. Then the cell culture supernatant was removed. The HBV-infected PHH were cultured with sandwich culture method with MEI culture medium containing 1% DMSO and 0.25 mg/mL matrix gel for 72 hours. The supernatant was then refreshed with PHH culture medium containing different concentrations of testing compounds for two times with 72-hour interval. At the end of treatment, the supernatant was collected for viral markers measurements, including HBsAg, HBeAg, HBV DNA and cytotoxicity. HBsAg and HBeAg were detected using alphalisa method using their specific antibodies. For HBV DNA detection, HBV DNA Quantitative Fluorescence Diagnostic Kit (Sansure Biotech Inc.) was used following the manufacture's protocol. Cytotoxicity was determined using Cell Counting Kit-8 (CCK8, Dojindo Molecular Technologies, Inc.).
(§2) The compounds of the present invention were tested for their capacity to inhibit HBsAg and HBeAg as described herein.

HBeAg = test: PHH HBV natural infection assay, HBeAg (alphalisa); conditions: Hepatitis B virus, Hepatocyte, read-out: HBeAg IC50
Method: as §1, §2

[1] = Cytotoxicity in PHH natural infection assay (Cell Counting Kit-8); conditions: HBV-infected primary human hepatocytes, CCK8
Method: as §1

Question: Which IC50 (HBsAg) does the source give for Cc1ccc(S(=O)(=O)N2CCC(CC(=O)NCC3CCN(c4nc5cc(Cl)ccc5o4)CC3)CC2)cc1 [Example 20, N-[[1-(5-chloro-1,3-benzoxazol-2-yl)-4-piperidyl]methyl]-2-[1-(p-tolylsulfonyl)-4-piperidyl]acetamide] here?
Answer: 3.88 µM

Question: And the IC50 (HBeAg)?
Answer: 4.05 µM

Question: What about the CC50 at 144 h [1] of the same molecule?
Answer: > 10 µM

Question: Which results are given for CC(C)C[S+]([O-])c1ccc(C(=O)NC2CC3(C2)CN(c2nc4cc(Cl)ccc4o2)C3)o1 (stereo not drawn) [Example 62, N-[2-(5-chloro-1,3-benzoxazol-2-yl)-2-azaspiro[3.3]heptan-6-yl]-5-isobutylsulfinyl-furan-2-carboxamide]?
Answer: IC50 (HBsAg): 0.449 µM; IC50 (HBeAg): 0.393 µM; CC50 at 144 h [1]: 77.4 µM

Question: For CC(C)(C)C(=O)NC1CCC2(CC1)CCN(c1nc3cc(Cl)ccc3o1)CC2 [Example 78, N-[3-(5-chloro-1,3-benzoxazol-2-yl)-3-azaspiro[5.5]undecan-9-yl]-2,2-dimethyl-propanamide], which IC50 (HBsAg) is on record?
Answer: 1.47 µM

Question: And the IC50 (HBeAg)?
Answer: 1.2 µM

Question: What about the CC50 at 144 h [1] of the same molecule?
Answer: 57.9 µM

Question: With NC(=O)c1ccc(C(=O)NCC2CCN(c3nc4cc(Cl)ccc4o3)CC2)o1 [Example 1, N2-[[1-(5-Chloro-1,3-benzoxazol-2-yl)-4-piperidyl]methyl]furan-2,5-dicarboxamide] as the molecule, how does the IC50 (HBsAg) read?
Answer: 9.4 µM

Question: What about the IC50 (HBeAg) of the same molecule?
Answer: 7.13 µM

Question: What about the CC50 at 144 h [1] of the same molecule?
Answer: > 10 µM

Question: Which results are given for O=C(NC1CCC2(CC1)CCN(c1nc3cc(Cl)ccc3o1)CC2)C1CCCS(=O)(=O)C1 (stereo not drawn) [Example 100, N-[3-(5-chloro-1,3-benzoxazol-2-yl)-3-azaspiro[5.5]undecan-9-yl]-1,1-dioxo-thiane-3-carboxamide]?
Answer: IC50 (HBsAg): 2.44 µM; IC50 (HBeAg): 1.72 µM; CC50 at 144 h [1]: > 100 µM

Question: With O=C(NC1CCC2(CC1)CCN(c1nc3ccccc3o1)CC2)c1ccnc(S(=O)(=O)C2CC2)c1 [Example 110, N-[3-(1,3-benzoxazol-2-yl)-3-azaspiro[5.5]undecan-9-yl]-2-cyclopropylsulfonyl-pyridine-4-carboxamide] as the molecule, how does the IC50 (HBsAg) read?
Answer: 5.84 µM

Question: What about the IC50 (HBeAg) of the same molecule?
Answer: 5.58 µM

Question: What about the CC50 at 144 h [1] of the same molecule?
Answer: > 10 µM

Question: With N=S(=O)(CC1CC1)c1ccc(C(=O)NC2CC3(C2)CN(c2nc4cc(Cl)ccc4o2)C3)o1 (stereo not drawn) [Example 57, N-[2-(5-chloro-1,3-benzoxazol-2-yl)-2-azaspiro[3.3]heptan-6-yl]-5-(cyclopropylmethylsulfonimidoyl)furan-2-carboxamide] as the molecule, how does the IC50 (HBsAg) read?
Answer: 0.996 µM

Question: And the IC50 (HBeAg)?
Answer: 0.953 µM

Question: What about the CC50 at 144 h [1] of the same molecule?
Answer: > 100 µM

Question: Which results are given for CS(=N)(=O)c1ccc(C(=O)NC2CC3(C2)CN(c2nc4cc(Cl)ccc4o2)C3)o1 (stereo not drawn) [Example 40, N-[2-(5-chloro-1,3-benzoxazol-2-yl)-2-azaspiro[3.3]heptan-6-yl]-5-(methylsulfonimidoyl)furan-2-carboxamide]?
Answer: IC50 (HBsAg): 6.13 µM; IC50 (HBeAg): 4.78 µM; CC50 at 144 h [1]: > 100 µM

Question: Which results are given for O=C(NC1CCC2(CC1)CCN(c1nc3ccc(Cl)cc3o1)CC2)C1CCS(=O)(=O)CC1 [Example 97, N-[3-(6-chloro-1,3-benzoxazol-2-yl)-3-azaspiro[5.5]undecan-9-yl]-1,1-dioxo-thiane-4-carboxamide]?
Answer: IC50 (HBsAg): 3.52 µM; IC50 (HBeAg): 2.48 µM; CC50 at 144 h [1]: > 100 µM

Question: For O=C(CC1CS(=O)(=O)C1)NC1CC2(C1)CN(c1nc3cc(Cl)ccc3o1)C2 (stereo not drawn) [Example 35, N-[2-(5-chloro-1,3-benzoxazol-2-yl)-2-azaspiro[3.3]heptan-6-yl]-2-(1,1-dioxothietan-3-yl)acetamide], which IC50 (HBsAg) is on record?
Answer: 2.36 µM

Question: And the IC50 (HBeAg)?
Answer: 2.22 µM

Question: What about the CC50 at 144 h [1] of the same molecule?
Answer: > 100 µM

Question: With O=C(NCC1CCN(c2nc3cc(Cl)ccc3o2)CC1)c1ccnc(S(=O)(=O)C2CC2)c1 [Example 3, N-[[1-(5-chloro-1,3-benzoxazol-2-yl)-4-piperidyl]methyl]-2-cyclopropylsulfonyl-pyridine-4-carboxamide] as the molecule, how does the IC50 (HBsAg) read?
Answer: 7.84 µM

Question: And the IC50 (HBeAg)?
Answer: 6.38 µM

Question: What about the CC50 at 144 h [1] of the same molecule?
Answer: > 10 µM

Question: Which IC50 (HBsAg) does the source give for CCOc1cc(C(=O)NC2CC3(C2)CN(c2nc4cc(Cl)ccc4o2)C3)ccn1 [Example 49, N-[2-(5-chloro-1,3-benzoxazol-2-yl)-2-azaspiro[3.3]heptan-6-yl]-2-ethoxy-pyridine-4-carboxamide] here?
Answer: 3.1 µM

Question: And the IC50 (HBeAg)?
Answer: 1.7 µM

Question: What about the CC50 at 144 h [1] of the same molecule?
Answer: > 100 µM

Question: For O=C(NCC1CCN(c2nc3cc(Cl)ccc3o2)CC1)C1CS(=O)(=O)C1 [Example 10, N-[[1-(5-chloro-1,3-benzoxazol-2-yl)-4-piperidyl]methyl]-1,1-dioxo-thietane-3-carboxamide], which IC50 (HBsAg) is on record?
Answer: 9.67 µM

Question: What about the IC50 (HBeAg) of the same molecule?
Answer: 10.4 µM

Question: What about the CC50 at 144 h [1] of the same molecule?
Answer: > 100 µM

Question: With O=C(NC1CCC2(CC1)CN(c1nc3cc(Cl)ccc3o1)C2)c1ccc(C(F)(F)F)o1 [Example 70, N-[2-(5-chloro-1,3-benzoxazol-2-yl)-2-azaspiro[3.5]nonan-7-yl]-5-(trifluoromethyl)furan-2-carboxamide] as the molecule, how does the IC50 (HBsAg) read?
Answer: 6.09 µM

Question: And the IC50 (HBeAg)?
Answer: 2.96 µM

Question: And the CC50 at 144 h [1]?
Answer: > 100 µM

Question: With CS(=O)(=O)c1ccc(C(=O)NC2CCC3(CC2)CCN(c2nc4cc(Cl)ccc4o2)CC3)o1 [Example 113, N-[3-(5-chloro-1,3-benzoxazol-2-yl)-3-azaspiro[5.5]undecan-9-yl]-5-methylsulfonyl-furan-2-carboxamide] as the molecule, how does the IC50 (HBsAg) read?
Answer: 3.59 µM

Question: What about the IC50 (HBeAg) of the same molecule?
Answer: 3.27 µM

Question: And the CC50 at 144 h [1]?
Answer: > 100 µM

Question: Which results are given for O=C(NC1CCC2(CCN(c3nc4cc(Cl)ccc4o3)C2)C1)c1ccc(C(F)(F)F)o1 (stereo not drawn) [Example 75, N-[2-(5-chloro-1,3-benzoxazol-2-yl)-2-azaspiro[4.4]nonan-8-yl]-5-(trifluoromethyl)furan-2-carboxamide]?
Answer: IC50 (HBsAg): 8.28 µM; IC50 (HBeAg): 7.81 µM; CC50 at 144 h [1]: 91.2 µM

Question: Which results are given for O=C(NC1CCC2(CC1)CCN(c1nc3cc(Cl)ccc3o1)CC2)c1ccc(C(F)(F)F)o1 [Example 115, N-[3-(5-chloro-1,3-benzoxazol-2-yl)-3-azaspiro[5.5]undecan-9-yl]-5-(trifluoromethyl)furan-2-carboxamide]?
Answer: IC50 (HBsAg): 2.92 µM; IC50 (HBeAg): 2.64 µM; CC50 at 144 h [1]: > 100 µM

Question: What does the source list for CS(=O)(=O)N1CCC(C(=O)NCC2CCN(c3nc4cc(Cl)ccc4o3)CC2)CC1 [Example 15, N-[[1-(5-chloro-1,3-benzoxazol-2-yl)-4-piperidyl]methyl]-1-methylsulfonyl-piperidine-4-carboxamide]?
Answer: IC50 (HBsAg): 3.97 µM; IC50 (HBeAg): 3.64 µM; CC50 at 144 h [1]: > 10 µM

Question: Which results are given for N=S(=O)(CC1CC1)c1ccc(C(=O)NC2CCC3(CC2)CCN(c2nc4cc(Cl)ccc4o2)CC3)o1 (stereo not drawn) [Example 119, N-[3-(5-chloro-1,3-benzoxazol-2-yl)-3-azaspiro[5.5]undecan-9-yl]-5-(cyclopropylmethylsulfonimidoyl)furan-2-carboxamide]?
Answer: IC50 (HBsAg): 1.92 µM; IC50 (HBeAg): 1.36 µM; CC50 at 144 h [1]: 85.8 µM

Question: Which results are given for O=C(NC1CCC2(CC1)CCN(c1nc3cc(Cl)ccc3o1)CC2)c1ccnc(S(=O)(=O)C2CC2)c1 [Example 118, N-[3-(5-chloro-1,3-benzoxazol-2-yl)-3-azaspiro[5.5]undecan-9-yl]-2-cyclopropylsulfonyl-pyridine-4-carboxamide]?
Answer: IC50 (HBsAg): 2.37 µM; IC50 (HBeAg): 2.36 µM; CC50 at 144 h [1]: > 10 µM

Question: Which results are given for COc1ccc(C(=O)NC2CC3(C2)CN(c2nc4cc(Cl)ccc4o2)C3)cn1 [Example 46, N-[2-(5-chloro-1,3-benzoxazol-2-yl)-2-azaspiro[3.3]heptan-6-yl]-6-methoxy-pyridine-3-carboxamide]?
Answer: IC50 (HBsAg): 4.74 µM; IC50 (HBeAg): 2.86 µM; CC50 at 144 h [1]: > 100 µM

Question: Which IC50 (HBsAg) does the source give for O=C(NC1CC2(C1)CN(c1nc3cc(Cl)ccc3o1)C2)c1ccnc(C(F)(F)F)c1 [Example 55, N-[2-(5-chloro-1,3-benzoxazol-2-yl)-2-azaspiro[3.3]heptan-6-yl]-2-(trifluoromethyl)pyridine-4-carboxamide] here?
Answer: 1.23 µM

Question: What about the IC50 (HBeAg) of the same molecule?
Answer: 0.966 µM

Question: And the CC50 at 144 h [1]?
Answer: 71.1 µM

Question: What does the source list for O=C(NC1CCC2(CC1)CCN(c1nc3ccc(Cl)cc3o1)CC2)C1CS(=O)(=O)C1 [Example 89, N-[3-(6-chloro-1,3-benzoxazol-2-yl)-3-azaspiro[5.5]undecan-9-yl]-1,1-dioxo-thietane-3-carboxamide]?
Answer: IC50 (HBsAg): 6.76 µM; IC50 (HBeAg): 3.93 µM; CC50 at 144 h [1]: 88.1 µM

Question: Which results are given for CC1(C(=O)NC2CCC3(CC2)CCN(c2nc4cc(Cl)ccc4o2)CC3)CCS(=O)(=O)CC1 [Example 99, N-[3-(5-chloro-1,3-benzoxazol-2-yl)-3-azaspiro[5.5]undecan-9-yl]-4-methyl-1,1-dioxo-thiane-4-carboxamide]?
Answer: IC50 (HBsAg): 2.63 µM; IC50 (HBeAg): 2.02 µM; CC50 at 144 h [1]: 94.1 µM

Question: With O=C(NC1CC2(C1)CN(c1nc3cc(Cl)ccc3o1)C2)C1CC(F)(F)C1 [Example 31, N-[2-(5-chloro-1,3-benzoxazol-2-yl)-2-azaspiro[3.3]heptan-6-yl]-3,3-difluoro-cyclobutanecarboxamide] as the molecule, how does the IC50 (HBsAg) read?
Answer: 6.98 µM

Question: What about the IC50 (HBeAg) of the same molecule?
Answer: 6.22 µM

Question: What about the CC50 at 144 h [1] of the same molecule?
Answer: > 100 µM
